US10301302B2, “Crystalline forms of N-(2-chloro-6-methy]phenvn-2-[F6-[4-(2-hvdroxvethvl)-L-piperazin-vil-2-methvil-4-pvrimidinvllaminol-5-thiazolecarboxamide and their process thereof” (MSN LABORATORIES PRIVATE LIMITED, priority 2015, dated 2019)

Columns and labels:
[1] = Solubility of the 1,2-propanediol solvate (stated advantage, no method given); assay type: physicochemical; conditions: advantageous property found by the inventors; no solvent or value given
[2] = cited from earlier work

solubility [1]	SMILES	solubility in alcoholic solvents ([2]; alcoholic solvents like ethanol and methanol)	solubility in water ([2]; water)
good solubility	Cc1nc(Nc2ncc(C(=O)Nc3c(C)cccc3Cl)s2)cc(N2CCN(CCO)CC2)n1 [1,2-propanediol solvate, 1,2-Propanediol solvate of N-(2-chloro-6-methylphenyl)-2-[[6-[4-(2-hydroxyethyl)-1-piperazinyl]-2-methyl-4-pyrimidinyl]amino]-5-thiazolecarboxamide]	–	–
–	Cc1nc(Nc2ncc(C(=O)Nc3c(C)cccc3Cl)s2)cc(N2CCN(CCO)CC2)n1 [Dasatinib, N-(2-chloro-6-methylphenyl)-2-[[6-[4-(2-hydroxyethyl)-1-piperazinyl]-2-methyl-4-pyrimidinyl]amino]-5-thiazole carboxamide]	slightly soluble	insoluble
